Reference: BindingDB's records for doi:10.7270/Q29885F3 (Nmmlsc, 2009)
pKi: −log10 of the molar value.

Target: Ras-related protein Rab-7a (Canis lupus familiaris, UniProt P18067)
Assay: Rab7 GTP binding inhibitors, analog potency, SAR follow-up, biochemical, oxadiazole analogs, multiplex bead flow cytometry (AID 2031)
Conditions: inactive by the depositor's call

Sequence of Ras-related protein Rab-7a (P18067 whole entry): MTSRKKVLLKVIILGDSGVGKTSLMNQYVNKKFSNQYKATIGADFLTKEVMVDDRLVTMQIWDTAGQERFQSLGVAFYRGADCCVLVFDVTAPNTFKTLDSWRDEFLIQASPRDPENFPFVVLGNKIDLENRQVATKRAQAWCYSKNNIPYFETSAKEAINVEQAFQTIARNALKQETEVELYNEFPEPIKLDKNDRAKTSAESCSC

COc1ccc(-c2noc(CCC(=O)N3CCN(c4cccc(C)c4C)CC3)n2)cc1 [1-[4-(2,3-dimethylphenyl)-1-piperazinyl]-3-[3-(4-methoxyphenyl)-1,2,4-oxadiazol-5-yl]-1-propanone]
pKi: 7.00

Cc1ccc(C)c(N2CCN(C(=O)CCc3nc(-c4ccc(Br)cc4)no3)CC2)c1 [UNM-0000306072]
pKi: 7.00
